Results as given in US20030003396A1, “Optical data carrier comprising a merocyanine dye as light-absorbent compound in the information layer” (priority 2001, published 2003).
Marks after values point to notes of the source that are not given here.

Assay: UV absorption spectra measured in solution
Type: physicochemical
Excerpt: In the case of a write-once optical data carrier according to the invention which is written on and read by means of the light of a blue laser, preference is given to merocyanine dyes whose absorption maximum λmax1 is in the range from 340 to 410 nm, […] half of the […] one tenth of the absorbance value at λmax1 are preferably not more than 50 nm apart. Such a merocyanine dye preferably has no longer-wavelength maximum λmax2 up to a wavelength of 500 nm, particularly preferably up to 550 nm, very particularly preferably up to 600 nm.
The absorption spectra are measured, for example, in solution.
Suitable merocyanines having the required spectral properties are, in particular, those in which the dipole moment change Δμ=|μg−μag|, i.e. the positive difference between the dipole moments in the ground state and in the first excited state, is very small, preferably <5 D, particularly preferably <2 D. A method of determining such a dipole moment change Δμ is described, for example, in F. Würthner et al., Angew. Chem. 1997, 109, 2933, and in the literature cited therein. A low solvent-induced wavelength shift (dioxane/DMF) is likewise a suitable selection criterion. Preference is given to merocyanines whose solvent-induced wavelength shift Δλ=|λDMF−λdioxane|, i.e. the positive difference between the absorption wavelengths in the solvents dimethylformamide and dioxane, is <20 nm, particularly preferably <10 nm, very particularly preferably <5 nm

[1] = Table 2, on the short wavelength flank
[2] = Table 1, on the short wavelength flank
[3] = Table 1, on the long wavelength flank

CCOC(=O)C1=NN(c2ccccc2)C(=O)C1=CC=C1N(C)c2ccc(C(=O)OC)cc2C1(C)C [Example 52]
ε (Table 2): 62720 L/mol/cm | λmax (Table 2, in dioxane): 496 nm

CN1C(=CC=C2C(=O)c3ccccc3C2=O)C(C)(C)c2ccccc21 [Example 39]
ε (Table 2): 102220 L/mol/cm | λmax (Table 2, in dioxane): 487 nm | λ1/2-λ1/10 [1]: 35^3) nm | Δλ (Table 2, |λDMF - λdioxane|): 6 nm

CCCN1C(=O)C(=CC(C)=CN(C)C)C(C)=C(C#N)C1=O [Example 83]
λmax (Table 3, in dioxane): 337 nm

CCCCN1C(=O)C(=CC=CN(C)c2ccccc2)C(C)=C(C#N)C1=O [Example 72]
ε (Table 3): 79685 L/mol/cm | λmax (Table 3, in dioxane): 480 nm | Δλ (Table 3, |λDMF-λdioxane|): 1.3 nm

Cc1c(C#N)c(=C(C#N)C#N)[nH]c(=O)c1=CC=C1N(C)c2ccccc2C1(C)C [Example 66]
λmax (Table 2, in methanol): 546^5) nm

CCOC(=O)C(C#N)=c1[nH]c(=O)c(=CC=C2N(C)c3ccc(C(=O)OC)cc3C2(C)C)c(C)c1C(=O)OCC [Example 65]
ε (Table 2): 142900 L/mol/cm | λmax (Table 2, in methanol): 587^5) nm

CCCCCCN1C(=O)C(=Cc2ccc(N(C)C)o2)C(C)=C(C#N)C1=O [Example 16]
ε (Table 1): 128960 L/mol/cm | λmax (Table 1, in dioxane): 535 nm | Δλ (Table 1, |λDMF-λdioxane|): 1.3 nm

CCN(CC)c1ncc(C=C2C(=O)c3ccccc3C2=O)s1 [Example 32]
ε (Table 1): 62026 L/mol/cm | λmax (Table 1, in dioxane): 472 nm | λ1/2-λ1/10 [2]: 42^3) nm

CCCCN(CCCC)c1ccc(C=C2C(=O)N(C)C(=S)N(C)C2=O)o1 [Example 29]
ε (Table 1): 153420 L/mol/cm | λmax (Table 1, in dioxane): 508 nm | λ1/2-λ1/10 [3]: 11^4) nm

CCCN1C(=O)C(=CC=CN(C)C)C(C)=C(C#N)C1=O [Example 68]
ε (Table 3): 77180 L/mol/cm | λmax (Table 3, in dioxane): 462 nm | λ1/2-λ1/10 (Table 3, on the short wavelength flank): 28^3) nm | Δλ (Table 3, |λDMF-λdioxane|): 8 nm

CCCCN(CCCC)c1ccc(C=C2C(=O)N(CCOC)C(=O)C(C#N)=C2C)s1 [Example 14]
ε (Table 1): 112260 L/mol/cm | λmax (Table 1, in dioxane): 535 nm | λ1/2-λ1/10 [3]: 13^4) nm

CN(C)c1ncc(C(C#N)=C(C#N)C#N)s1 [Example 5]
ε (Table 1): 40990 L/mol/cm | λmax (Table 1, in dioxane): 470 nm | λ1/2-λ1/10 [2]: 32^3) nm | Δλ (Table 1, |λDMF-λdioxane|): 16 nm

CCCOC(=O)C(C#N)=CC=C1N(C)c2ccccc2C1(C)C [Example 38]
ε (Table 2): 60390 L/mol/cm | λmax (Table 2, in dioxane): 429 nm | λ1/2-λ1/10 [1]: 30^3) nm | Δλ (Table 2, |λDMF - λdioxane|): 7 nm

CCOC(=O)C(C#N)=c1[nH]c(=O)c(=CC=C2N(C)c3ccccc3C2(C)C)c(C)c1C(=O)OCC [Example 64]
λmax (Table 2, in methanol): 577^5) nm

COC(=O)c1ccc2c(c1)C(C)(C)C(=CC=C(C#N)[n+]1ccccc1)N2C.[O-][Cl+3]([O-])([O-])[O-] [Example 58]
ε (Table 2): 36010 L/mol/cm | λmax (Table 2, in methanol): 459^5) nm

CCN1CCCC1=CC=C(C#N)[n+]1ccccc1.[O-][Cl+3]([O-])([O-])[O-] [Example 59]
ε (Table 2): 24400 L/mol/cm | λmax (Table 2, in methanol): 462^5) nm

CCN1C(=O)C(=CC=CC=CN(C)c2ccccc2)C(C)=C(C#N)C1=O [Example 80]
ε (Table 3): 119800 L/mol/cm | λmax (Table 3, in dioxane): 585 nm | λ1/2-λ1/10 (Table 3, on the long wavelength flank): 28^4) nm

CCN1C(=O)C(=CC=C2N(C)c3ccccc3C2(C)C)SC1=S [Example 61]
ε (Table 2): 36610 L/mol/cm | λmax (Table 2, in methylene chloride): 512^6) nm | λ1/2-λ1/10 (Table 2, on the long wavelength flank): 25^4) nm | Δλ (Table 2, |λmethylene chloride-λmethanol|): 36^7) nm

COc1ccc2c(c1)C(C)(C)C(=CC(C#N)=C(C#N)C#N)N2C [Example 43]
ε (Table 2): 31345 L/mol/cm | λmax (Table 2, in dioxane): 511 nm | λ1/2-λ1/10 [1]: 36^3) nm | Δλ (Table 2, |λDMF - λdioxane|): 6 nm

CCCCN(CCCC)c1ccc(C=C2C(=O)N(C)C(=O)C(C#N)=C2C)o1 [Example 10]
ε (Table 1): 106640 L/mol/cm | λmax (Table 1, in dioxane): 539 nm

CCCCN(CCCC)c1ccc(C=C2C(=O)N(C)C(=O)N(C)C2=O)o1 [Example 9]
ε (Table 1): 117700 L/mol/cm | λmax (Table 1, in DMF): 490^6) nm

CCCCN(CCCC)c1ccc(C=C2C(=O)OC(C)(C)OC2=O)o1 [Example 8]
ε (Table 1): 70880 L/mol/cm | λmax (Table 1, in dioxane): 472 nm | λ1/2-λ1/10 [2]: 32^3) nm | Δλ (Table 1, |λDMF-λdioxane|): 5 nm
